≈ marks a conversion by molar mass, not a printed value. Blank lines part the entries; values can stand above or below the molecule they belong to.
What was measured:
Test in all cases: In vitro antibacterial evaluation: minimum inhibitory concentration (MIC), broth dilution method
Assay type in all cases: cell-based
Details in all cases: 18 hours at 35° C.
[1] = tested on: Enterococcus sp.
Procedure, shortened: (§1)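 Following NCCLS approved standard M7-A2, compounds are serially diluted from 64 to 0.06 μg/mL in Muller-Hinton II […] and inoculated at 5×10^5 CFU/mL; the MIC is the minimum concentration at which growth is inhibited.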

[2] = tested on: Escherichia coli
Procedure, shortened: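 Susceptibility determined by NCCLS-recommended broth dilution (M7-A2), Muller-Hinton II […]. Concentration span 64-0.06 μg/mL, inoculum 5×10^5 CFU/mL. Isolates include strains resistant to methicillin, penicillin and/or vancomycin.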

[3] = tested on: Staphylococcus sp.
Procedure, shortened: as §1

[4] = tested on: Streptococcus sp.
Procedure, shortened: as §1

[5] = Enterococcus faecalis (GC 2242)
[6] = Enterococcus faecalis (GC 2691)
[7] = Enterococcus faecalis (GC 3059)
[8] = broth dilution, inoculum 5×10^5 CFU/mL
[9] = Streptococcus agalactiae (GC 4564)
[10] = Streptococcus pneumoniae (ATCC 6301)
[11] = Streptococcus pneumoniae (GC 1894)
[12] = Streptococcus pneumoniae (GC 4565)
[13] = Streptococcus pyogenes (GC 4563)

- MIC Enterococcus avium (GC 4558) [1]: 32 µg/mL (≈ 22 µM)
- MIC Enterococcus faecalis (ATCC 29212) [1]: >64 µg/mL
- MIC Enterococcus faecalis (GC 2242) [1, 5]: 64 µg/mL (≈ 44 µM)
- MIC Enterococcus faecalis (GC 2691) [1, 6]: >64 µg/mL
- MIC Enterococcus faecalis (GC 3059) [1, 7]: >64 µg/mL
- MIC Enterococcus faecalis (GC 4552) [1]: >64 µg/mL
- MIC Enterococcus faecalis (GC 4553) [1]: 64 µg/mL (≈ 44 µM)
- MIC Enterococcus faecalis (GC 4554) [1]: >64 µg/mL
- MIC Enterococcus faecalis (GC 6189) [1]: 64 µg/mL (≈ 44 µM)
- MIC Enterococcus faecium (GC 2243) [1]: 64 µg/mL (≈ 44 µM)
- MIC Enterococcus faecium (GC 4556) [1]: >64 µg/mL
- MIC Enterococcus faecium (GC 4557) [1]: 32 µg/mL (≈ 22 µM)
- MIC Enterococcus faecalis (GC 2242) [1, 8]: 64 µg/mL (≈ 44 µM)
- MIC Enterococcus faecalis (GC 2691) [1, 8]: >64 µg/mL
- MIC Enterococcus faecalis (GC 3059) [1, 8]: >64 µg/mL
- MIC Escherichia coli (ATCC 25922) [2]: >64 µg/mL
- MIC Escherichia coli (GC 4559) [2]: >64 µg/mL
- MIC Escherichia coli (GC 4560) [2]: 64 µg/mL (≈ 44 µM)
- MIC Coagulase Negative Staphylococcus (GC 4547) [3]: 64 µg/mL (≈ 44 µM)
- MIC Coagulase Negative Staphylococcus (GC 4548) [3]: 32 µg/mL (≈ 22 µM)
- MIC Coagulase Negative Staphylococcus (GC 4549) [3]: 32 µg/mL (≈ 22 µM)
- MIC Coagulase Negative Staphylococcus (GC 4551) [3]: 64 µg/mL (≈ 44 µM)
- MIC Coagulase Negative Staphylococcus (GC 6257) [3]: 32 µg/mL (≈ 22 µM)
- MIC Staphylococcus aureus (ATCC 29213) [3]: 64 µg/mL (≈ 44 µM)
- MIC Staphylococcus aureus (GC 1131) [3]: 64 µg/mL (≈ 44 µM)
- MIC Staphylococcus aureus (GC 3051) [3]: 64 µg/mL (≈ 44 µM)
- MIC Staphylococcus aureus (GC 3053) [3]: 64 µg/mL (≈ 44 µM)
- MIC Staphylococcus aureus (GC 4541) [3]: 64 µg/mL (≈ 44 µM)
- MIC Staphylococcus aureus (GC 4542) [3]: 64 µg/mL (≈ 44 µM)
- MIC Staphylococcus aureus (GC 4544) [3]: 64 µg/mL (≈ 44 µM)
- MIC Staphylococcus aureus (GC 4545) [3]: 64 µg/mL (≈ 44 µM)
- MIC Staphylococcus aureus-SMITH (GC 4543) [3]: 64 µg/mL (≈ 44 µM)
- MIC Streptococcus agalactiae (GC 4564) [4, 9]: 32 µg/mL (≈ 22 µM)
- MIC Streptococcus pneumoniae (ATCC 6301) [4, 10]: 32 µg/mL (≈ 22 µM)
- MIC Streptococcus pneumoniae (GC 1894) [4, 11]: 8 µg/mL (≈ 5.5 µM)
- MIC Streptococcus pneumoniae (GC 4565) [4, 12]: 16 µg/mL (≈ 11 µM)
- MIC Streptococcus pyogenes (GC 4563) [4, 13]: 32 µg/mL (≈ 22 µM)
- MIC Streptococcus agalactiae (GC 4564) [4, 8]: 32 µg/mL (≈ 22 µM)
- MIC Streptococcus pneumoniae (ATCC 6301) [4, 8]: 32 µg/mL (≈ 22 µM)
- MIC Streptococcus pneumoniae (GC 1894) [4, 8]: 8 µg/mL (≈ 5.5 µM)
- MIC Streptococcus pneumoniae (GC 4565) [4, 8]: 16 µg/mL (≈ 11 µM)
- MIC Streptococcus pyogenes (GC 4563) [4, 8]: 32 µg/mL (≈ 22 µM)
Compound: CC(c1ccccc1)C1NC(=O)CNC(=O)C(CO)NC(=O)C(C(O)C2CNC(=N)N2C2OC(CO)C(O)C(O)C2O)NC(=O)C(C(O)C2CNC(=N)N2)NC(=O)C(Cc2ccc(OC3OC(CO)C(OC4OC(COCC=Cc5ccc(N(C)C)cc5)C(O)C(O)C4O)C(O)C3O)cc2)NC1=O (centres unmarked) [Example 243]
- MIC Staphylococcus haemolyticus (GC 4546) [3]: 64 µg/mL (≈ 44 µM)

- MIC Enterococcus avium (GC 4558) [1]: 16 µg/mL (≈ 11 µM)
- MIC Enterococcus faecalis (ATCC 29212) [1]: 32 µg/mL (≈ 22 µM)
- MIC Enterococcus faecalis (GC 2242) [1, 5]: 32 µg/mL (≈ 22 µM)
- MIC Enterococcus faecalis (GC 2691) [1, 6]: 32 µg/mL (≈ 22 µM)
- MIC Enterococcus faecalis (GC 3059) [1, 7]: 32 µg/mL (≈ 22 µM)
- MIC Enterococcus faecalis (GC 4552) [1]: 32 µg/mL (≈ 22 µM)
- MIC Enterococcus faecalis (GC 4553) [1]: 32 µg/mL (≈ 22 µM)
- MIC Enterococcus faecalis (GC 4554) [1]: 32 µg/mL (≈ 22 µM)
- MIC Enterococcus faecalis (GC 6189) [1]: 32 µg/mL (≈ 22 µM)
- MIC Enterococcus faecium (GC 2243) [1]: 32 µg/mL (≈ 22 µM)
- MIC Enterococcus faecium (GC 4556) [1]: 32 µg/mL (≈ 22 µM)
- MIC Enterococcus faecium (GC 4557) [1]: 16 µg/mL (≈ 11 µM)
- MIC Enterococcus faecalis (GC 2242) [1, 8]: 32 µg/mL (≈ 22 µM)
- MIC Enterococcus faecalis (GC 2691) [1, 8]: 32 µg/mL (≈ 22 µM)
- MIC Enterococcus faecalis (GC 3059) [1, 8]: 32 µg/mL (≈ 22 µM)
- MIC Escherichia coli (ATCC 25922) [2]: >64 µg/mL
- MIC Escherichia coli (GC 4559) [2]: >64 µg/mL
- MIC Escherichia coli (GC 4560) [2]: 32 µg/mL (≈ 22 µM)
- MIC Coagulase Negative Staphylococcus (GC 4547) [3]: 32 µg/mL (≈ 22 µM)
- MIC Coagulase Negative Staphylococcus (GC 4548) [3]: 32 µg/mL (≈ 22 µM)
- MIC Coagulase Negative Staphylococcus (GC 4549) [3]: 16 µg/mL (≈ 11 µM)
- MIC Coagulase Negative Staphylococcus (GC 4551) [3]: 32 µg/mL (≈ 22 µM)
- MIC Coagulase Negative Staphylococcus (GC 6257) [3]: 16 µg/mL (≈ 11 µM)
- MIC Staphylococcus aureus (ATCC 29213) [3]: 32 µg/mL (≈ 22 µM)
- MIC Staphylococcus aureus (GC 1131) [3]: 32 µg/mL (≈ 22 µM)
- MIC Staphylococcus aureus (GC 3051) [3]: 32 µg/mL (≈ 22 µM)
- MIC Staphylococcus aureus (GC 3053) [3]: 32 µg/mL (≈ 22 µM)
- MIC Staphylococcus aureus (GC 4541) [3]: 32 µg/mL (≈ 22 µM)
- MIC Staphylococcus aureus (GC 4542) [3]: 32 µg/mL (≈ 22 µM)
- MIC Staphylococcus aureus (GC 4544) [3]: 32 µg/mL (≈ 22 µM)
- MIC Staphylococcus aureus (GC 4545) [3]: 32 µg/mL (≈ 22 µM)
- MIC Staphylococcus aureus-SMITH (GC 4543) [3]: 32 µg/mL (≈ 22 µM)
- MIC Streptococcus agalactiae (GC 4564) [4, 9]: 16 µg/mL (≈ 11 µM)
- MIC Streptococcus pneumoniae (ATCC 6301) [4, 10]: 16 µg/mL (≈ 11 µM)
- MIC Streptococcus pneumoniae (GC 1894) [4, 11]: 1 µg/mL (≈ 0.688 µM)
- MIC Streptococcus pneumoniae (GC 4565) [4, 12]: 2 µg/mL (≈ 1.38 µM)
- MIC Streptococcus pyogenes (GC 4563) [4, 13]: 8 µg/mL (≈ 5.5 µM)
- MIC Streptococcus agalactiae (GC 4564) [4, 8]: 16 µg/mL (≈ 11 µM)
- MIC Streptococcus pneumoniae (ATCC 6301) [4, 8]: 16 µg/mL (≈ 11 µM)
- MIC Streptococcus pneumoniae (GC 1894) [4, 8]: 1 µg/mL (≈ 0.688 µM)
- MIC Streptococcus pneumoniae (GC 4565) [4, 8]: 2 µg/mL (≈ 1.38 µM)
- MIC Streptococcus pyogenes (GC 4563) [4, 8]: 8 µg/mL (≈ 5.5 µM)
Compound: CC(c1ccccc1)C1NC(=O)CNC(=O)C(CO)NC(=O)C(C(O)C2CNC(=N)N2C2OC(CO)C(O)C(O)C2O)NC(=O)C(C(O)C2CNC(=N)N2)NC(=O)C(Cc2ccc(OC3OC(CO)C(OC4OC(CO)C(OCC=Cc5ccc(N(C)C)cc5)C(O)C4O)C(O)C3O)cc2)NC1=O (centres unmarked) [Example 243a]
- MIC Staphylococcus haemolyticus (GC 4546) [3]: 32 µg/mL (≈ 22 µM)

— patent publication US8247211B2, “Glycopeptide antibiotics” (American Cyanamid Company, priority 2001, dated 2012)
